N#CCc1ccccc1[N+](=O)[O-]
Details | solubility (mole fraction)
in 1,4-dioxane, 288.15 K | 0.216
in 1,4-dioxane, 293.15 K | 0.226
in 1,4-dioxane, 298.15 K | 0.241
in 1,4-dioxane, 303.15 K | 0.257
in 1,4-dioxane, 308.15 K | 0.278
in 1,4-dioxane, 313.15 K | 0.303
in 1,4-dioxane, 318.15 K | 0.334
in 1,4-dioxane, 323.15 K | 0.371
in 1,4-dioxane, 328.15 K | 0.414
in 1,4-dioxane, 333.15 K | 0.469
in 2-butanone, 278.15 K | 0.108
in 2-butanone, 283.15 K | 0.128
in 2-butanone, 288.15 K | 0.151
in 2-butanone, 293.15 K | 0.173
in 2-butanone, 298.15 K | 0.197
in 2-butanone, 303.15 K | 0.235
in 2-butanone, 308.15 K | 0.269
in 2-butanone, 313.15 K | 0.312
in 2-butanone, 318.15 K | 0.357
in 2-butanone, 323.15 K | 0.422
in 2-butanone, 328.15 K | 0.475
in 2-butanone, 333.15 K | 0.543
in acetic acid, 293.15 K | 0.0478
in acetic acid, 298.15 K | 0.0574
in acetic acid, 303.15 K | 0.0694
in acetic acid, 308.15 K | 0.0846
in acetic acid, 313.15 K | 0.104
in acetic acid, 318.15 K | 0.128
in acetic acid, 323.15 K | 0.158
in acetic acid, 328.15 K | 0.196
in acetic acid, 333.15 K | 0.244
in acetone, 278.15 K | 0.13
in acetone, 283.15 K | 0.147
in acetone, 288.15 K | 0.171
in acetone, 293.15 K | 0.194
in acetone, 298.15 K | 0.227
in acetone, 303.15 K | 0.259
in acetone, 308.15 K | 0.295
in acetone, 313.15 K | 0.342
in acetone, 318.15 K | 0.385
in acetone, 323.15 K | 0.439
in acetone, 328.15 K | 0.506
in acetonitrile, 278.15 K | 0.0932
in acetonitrile, 283.15 K | 0.107
in acetonitrile, 288.15 K | 0.124
in acetonitrile, 293.15 K | 0.143
in acetonitrile, 298.15 K | 0.168
in acetonitrile, 303.15 K | 0.195
in acetonitrile, 308.15 K | 0.228
in acetonitrile, 313.15 K | 0.264
in acetonitrile, 318.15 K | 0.31
in acetonitrile, 323.15 K | 0.362
in acetonitrile, 328.15 K | 0.424
in acetonitrile, 333.15 K | 0.498
in ethanol, 278.15 K | 0.00458
in ethanol, 283.15 K | 0.00566
in ethanol, 288.15 K | 0.00705
in ethanol, 293.15 K | 0.00939
in ethanol, 298.15 K | 0.0118
in ethanol, 303.15 K | 0.0156
in ethanol, 308.15 K | 0.0213
in ethanol, 313.15 K | 0.0277
in ethanol, 318.15 K | 0.0383
in ethanol, 323.15 K | 0.0487
in ethanol, 328.15 K | 0.0649
in ethanol, 333.15 K | 0.0838
in ethyl acetate, 278.15 K | 0.13
in ethyl acetate, 283.15 K | 0.142
in ethyl acetate, 288.15 K | 0.16
in ethyl acetate, 293.15 K | 0.177
in ethyl acetate, 298.15 K | 0.199
in ethyl acetate, 303.15 K | 0.219
in ethyl acetate, 308.15 K | 0.246
in ethyl acetate, 313.15 K | 0.278
in ethyl acetate, 318.15 K | 0.313
in ethyl acetate, 323.15 K | 0.357
in ethyl acetate, 328.15 K | 0.407
in ethyl acetate, 333.15 K | 0.466
in ethylbenzene, 278.15 K | 0.0237
in ethylbenzene, 283.15 K | 0.0285
in ethylbenzene, 288.15 K | 0.0346
in ethylbenzene, 293.15 K | 0.0423
in ethylbenzene, 298.15 K | 0.052
in ethylbenzene, 303.15 K | 0.0644
in ethylbenzene, 308.15 K | 0.0803
in ethylbenzene, 313.15 K | 0.101
in ethylbenzene, 318.15 K | 0.126
in ethylbenzene, 323.15 K | 0.16
in ethylbenzene, 328.15 K | 0.204
in ethylbenzene, 333.15 K | 0.26
in isobutanol, 278.15 K | 0.00332
in isobutanol, 283.15 K | 0.00416
in isobutanol, 288.15 K | 0.00491
in isobutanol, 293.15 K | 0.00639
in isobutanol, 298.15 K | 0.00803
in isobutanol, 303.15 K | 0.0102
in isobutanol, 308.15 K | 0.013
in isobutanol, 313.15 K | 0.0171
in isobutanol, 318.15 K | 0.0228
in isobutanol, 323.15 K | 0.0303
in isobutanol, 328.15 K | 0.0404
in isobutanol, 333.15 K | 0.0546
in isopropanol, 278.15 K | 0.00411
in isopropanol, 283.15 K | 0.00484
in isopropanol, 288.15 K | 0.00579
in isopropanol, 293.15 K | 0.00751
in isopropanol, 298.15 K | 0.00982
in isopropanol, 303.15 K | 0.0132
in isopropanol, 308.15 K | 0.0177
in isopropanol, 313.15 K | 0.0228
in isopropanol, 318.15 K | 0.03
in isopropanol, 323.15 K | 0.0384
in isopropanol, 328.15 K | 0.0492
in isopropanol, 333.15 K | 0.0627
in methanol, 278.15 K | 0.00641
in methanol, 283.15 K | 0.00842
in methanol, 288.15 K | 0.0105
in methanol, 293.15 K | 0.0131
in methanol, 298.15 K | 0.0174
in methanol, 303.15 K | 0.0235
in methanol, 308.15 K | 0.0305
in methanol, 313.15 K | 0.0395
in methanol, 318.15 K | 0.0514
in methanol, 323.15 K | 0.0661
in methanol, 328.15 K | 0.0842
in methanol, 333.15 K | 0.108
in n-butanol, 278.15 K | 0.00351
in n-butanol, 283.15 K | 0.00437
in n-butanol, 288.15 K | 0.00569
in n-butanol, 293.15 K | 0.00731
in n-butanol, 298.15 K | 0.00969
in n-butanol, 303.15 K | 0.0129
in n-butanol, 308.15 K | 0.0175
in n-butanol, 313.15 K | 0.0223
in n-butanol, 318.15 K | 0.0293
in n-butanol, 323.15 K | 0.0383
in n-butanol, 328.15 K | 0.0491
in n-butanol, 333.15 K | 0.0624
in n-propanol, 278.15 K | 0.00412
in n-propanol, 283.15 K | 0.00553
in n-propanol, 288.15 K | 0.00681
in n-propanol, 293.15 K | 0.00917
in n-propanol, 298.15 K | 0.0115
in n-propanol, 303.15 K | 0.0151
in n-propanol, 308.15 K | 0.0196
in n-propanol, 313.15 K | 0.0254
in n-propanol, 318.15 K | 0.0333
in n-propanol, 323.15 K | 0.0426
in n-propanol, 328.15 K | 0.0544
in n-propanol, 333.15 K | 0.0685
in toluene, 278.15 K | 0.0293
in toluene, 283.15 K | 0.0371
in toluene, 288.15 K | 0.0471
in toluene, 293.15 K | 0.0613
in toluene, 298.15 K | 0.0738
in toluene, 303.15 K | 0.0968
in toluene, 308.15 K | 0.123
in toluene, 313.15 K | 0.153
in toluene, 318.15 K | 0.195
in toluene, 323.15 K | 0.241
in toluene, 328.15 K | 0.303
in toluene, 333.15 K | 0.377
in water, 278.15 K | 3.75e-05
in water, 283.15 K | 4.65e-05
in water, 288.15 K | 5.57e-05
in water, 293.15 K | 6.69e-05
in water, 298.15 K | 8.19e-05
in water, 303.15 K | 0.000102
in water, 308.15 K | 0.000125
in water, 313.15 K | 0.000153
in water, 318.15 K | 0.000186
in water, 323.15 K | 0.000225
in water, 328.15 K | 0.000274
in water, 333.15 K | 0.000333

Reference: BigSolDB 2.1
